The test system of assay [1] is rat passive cutaneous anaphylaxis (blued wheal area). Briefly: Passive cutaneous anaphylaxis in the rat (PCA). The class given is in vivo, rat (male, Sprague Dawley). Particulars: 125 mg/kg p.o.; antigen challenge ten minutes after oral administration. The source says:
Passive Cutaneous Anaphalixis in the Rat (Based on I. Mota, Life Science, 1963, F 465; and Z. Ovary and O. G. Bier, Proc. Soc. Exp. Biol. and Med., 1952, 81, 584)--Male, Sprague Dawley rats were sensitized at dorsal sites by intradermal injection of syngeneic serum containing IgE anti-ovalbumin.Forty-eight hours later, groups of four rats were given either vehicle (1% methylcellulose) or graded does of compound. Either ten minutes after oral drug administration or five minutes after i.p. drug dosing, rats were challenged intravenously with antigen (ovalbumin) in 1% Evans blue dye. Thirty minutes after antigen challenge, the rats were sacrificed by cervical dislocations, the dorsal skins were reflected and blued wheal areas measured. Mean values±S.D. for wheal areas in control and drug-treated groups were detemined and compared statistically using Student's t-test.

The subject of assay [2] is rat mast cells. Put plainly: Rat Mast Cell (RMC) histamine release from passively sensitized rat mast cells. The assay is classed as cell-based. Particulars: passively sensitized in vitro with anti-ovalbumin serum, antigen-induced histamine release, 0.1% DMSO, read-out: RMC I50. From the text: The compounds of the present invention are useful as intermediates for making benzo-bis-oxazoles. Further, the compounds of the present invention are useful as antiallergic agents as evidenced by their activity as blockers of histamine release from passively sensitized rat mast cells (RMC) and in the rat passive cutaneous test (PCA). A brief description of the test methods follow.
Rat Mast Cell (RMC) Studies--(Based on E. Kusner, B. Dabnick, D. F. Herzig, J. Pharm. Exp., Ther., 1973, 184, 41.) Rat mast cells were passively sensitized in vitro with anti-ovalbumin serum. Following a 15 minute incubation, the spontaneous histamine release (SR) in the absence of antigent and AIR (in the presence of antigen) were measured fluorometrically with a Technicon Auto Analyzer®.

For the molecule `O=c1[nH]c2cc3oc(=O)c(=O)[nH]c3cc2oc1=O` [Example 2E, Benzo(1,2-b;4,5-b)-bis-[1,4]oxazine-2,3,7,8-tetrone], the “PCA % Inhibition” value in assay [1] was found to be 42%. Besides, in assay [2], the IC50 is 1200 nM.

For the molecule `O=c1[nH]c2cc3[nH]c(=O)c(=O)oc3cc2oc1=O` [Example 1F, Benzo[1,2-b;5,4-b]-bis-[1,4]oxazine-2,3,7,8-tetrone], the “PCA % Inhibition” value in assay [1] was 26%. Further, the IC50 in assay [2] is 3000 nM.

These data come from patent US4476125A, “Benzobisoxazinetetrones and anti-allergic use thereof” (USV Pharmaceutical Corporation, priority 1983, dated 1984).
